From patent US12252524B2, “GIP/GLP1 co-agonist compounds” (Eli Lilly and Company, priority 2018, dated 2025)
Numbered stars: 1 amine (or outer) side, 2 acyl side, 3 side chain; on linkers, the order of the positions; unused ones are H or OH. Square brackets hold non-standard residues; d marks the D form. Side chains are listed from the residue outwards. Peptide text beside a SMILES is read from it. * marks the point of attachment. C20 diacid = O=C(O)CCCCCCCCCCCCCCCCCCC(=O)*; αMePhe(2-F) = C[C@](N)(Cc1ccccc1F)C(=O)O; γGlu = O=C(O)[C@H](CCC(=O)[*:2])N[*:1]; αMeF = C[C@](N)(Cc1ccccc1)C(=O)O; αMeL = CC(C)C[C@](C)(N)C(=O)O; AEEA = NCCOCCOCC(=O)O; Aib = CC(C)(N)C(=O)O

Columns and labels:
[1] = target: human GLP-1 receptor (GLP-1R) (Homo sapiens, UniProt P43220); assay: cAMP pharmacological functional assay in presence of casein, hGLP-1R; assay type: cell-based; conditions: HEK293 cells expressing hGLP-1R, 0.1% Casein, geometric mean; read-out: hGLP1R cAMP Rel EC50 nM (SEM, n)
Sequence of human GLP-1 receptor (GLP-1R) (P43220 24-463): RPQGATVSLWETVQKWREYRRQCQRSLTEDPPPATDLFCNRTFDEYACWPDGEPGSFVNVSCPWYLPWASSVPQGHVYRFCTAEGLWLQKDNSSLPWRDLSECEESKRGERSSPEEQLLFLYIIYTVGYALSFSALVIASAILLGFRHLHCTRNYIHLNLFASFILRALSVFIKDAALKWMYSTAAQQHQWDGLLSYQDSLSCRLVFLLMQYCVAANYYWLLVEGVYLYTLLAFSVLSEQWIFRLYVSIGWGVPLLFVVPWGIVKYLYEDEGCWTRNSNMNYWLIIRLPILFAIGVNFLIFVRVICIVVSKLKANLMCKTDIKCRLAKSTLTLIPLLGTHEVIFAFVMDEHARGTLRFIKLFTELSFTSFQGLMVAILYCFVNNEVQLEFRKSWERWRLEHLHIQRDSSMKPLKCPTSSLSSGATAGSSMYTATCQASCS

[2] = target: T1, gastric inhibitory peptide receptor (GIPR) (Homo sapiens, UniProt P48546); assay: cAMP pharmacological functional assay in presence of casein, hGIPR; assay type: cell-based; conditions: HEK293 cells expressing hGIPR, 0.1% Casein, geometric mean; read-out: hGIPR cAMP Rel EC50 nM (SEM, n)
T1 sequence (P48546 22-466): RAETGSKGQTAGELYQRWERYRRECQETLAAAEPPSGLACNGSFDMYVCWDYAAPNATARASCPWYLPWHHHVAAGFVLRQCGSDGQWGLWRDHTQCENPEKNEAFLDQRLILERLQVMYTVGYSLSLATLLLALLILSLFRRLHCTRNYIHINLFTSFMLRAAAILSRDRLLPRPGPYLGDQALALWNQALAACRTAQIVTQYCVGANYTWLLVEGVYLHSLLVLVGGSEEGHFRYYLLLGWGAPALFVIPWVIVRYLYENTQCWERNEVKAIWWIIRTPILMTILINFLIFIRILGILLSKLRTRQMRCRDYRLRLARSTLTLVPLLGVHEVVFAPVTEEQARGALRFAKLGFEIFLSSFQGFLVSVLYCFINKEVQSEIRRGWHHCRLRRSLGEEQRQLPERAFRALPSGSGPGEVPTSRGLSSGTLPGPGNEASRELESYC

| SMILES | EC50 [1] | EC50 [2] |
| --- | --- | --- |
| CC[C@H](C)[C@H](NC(=O)[C@H](CC(C)C)NC(=O)[C@H](Cc1ccc(O)cc1)NC(=O)[C@H](CCC(=O)O)NC(=O)[C@@H](NC(=O)[C@H](Cc1ccccc1)NC(=O)[C@@H](NC(=O)C(C)(C)NC(=O)[C@H](CCC(N)=O)NC(=O)[C@H](C)NC(=O)[C@H](CCCCNC(=O)COCCOCCNC(=O)COCCOCCNC(=O)CC[C@H](NC(=O)CCCCCCCCCCCCCCCCCCC(=O)O)C(=O)O)NC(=O)[C@H](CCCCN)NC(=O)[C@H](CC(=O)O)NC(=O)[C@H](CC(C)C)NC(=O)[C@](C)(CC(C)C)NC(=O)[C@@H](NC(=O)[C@H](CO)NC(=O)[C@H](Cc1ccc(O)cc1)NC(=O)[C@H](CC(=O)O)NC(=O)[C@H](CO)NC(=O)[C@@H](NC(=O)[C@](C)(Cc1ccccc1)NC(=O)[C@@H](NC(=O)CNC(=O)[C@H](CCC(=O)O)NC(=O)C(C)(C)NC(=O)[C@@H](N)Cc1ccc(O)cc1)[C@@H](C)O)[C@@H](C)O)[C@@H](C)CC)[C@@H](C)CC)[C@@H](C)CC)C(=O)N[C@@H](CCC(=O)O)C(=O)NCC(=O)NCC(=O)N1CCC[C@H]1C(=O)N[C@@H](CO)C(=O)N[C@@H](CO)C(=O)NCC(=O)N[C@@H](C)C(=O)N1CCC[C@H]1C(=O)N1CCC[C@H]1C(=O)N1CCC[C@H]1C(=O)N[C@@H](CO)C(N)=O [Example 141] (H-Y[Aib]EGT[αMeF]TSDYSI[αMeL]LDKK([AEEA-AEEA-γGlu-C20 diacid])AQ[Aib]IFIEYLIEGGPSSGAPPPS-NH2; N-terminus assumed) | 0.0975 nM | 0.2 nM |
| CC[C@H](C)[C@H](NC(=O)[C@H](CC(C)C)NC(=O)[C@H](Cc1ccc(O)cc1)NC(=O)[C@H](CCC(N)=O)NC(=O)[C@@H](NC(=O)[C@H](Cc1ccccc1)NC(=O)[C@H](CCC(=O)O)NC(=O)C(C)(C)NC(=O)[C@H](CCC(N)=O)NC(=O)[C@H](C)NC(=O)[C@H](CCCCNC(=O)COCCOCCNC(=O)COCCOCCNC(=O)CC[C@H](NC(=O)CCCCCCCCCCCCCCCCCCC(=O)O)C(=O)O)NC(=O)[C@H](CCC(=O)O)NC(=O)[C@H](CC(=O)O)NC(=O)[C@H](CC(C)C)NC(=O)[C@](C)(CC(C)C)NC(=O)[C@@H](NC(=O)[C@H](CO)NC(=O)[C@H](Cc1ccc(O)cc1)NC(=O)[C@H](CC(=O)O)NC(=O)[C@H](CO)NC(=O)[C@@H](NC(=O)[C@](C)(Cc1ccccc1F)NC(=O)[C@@H](NC(=O)CNC(=O)[C@H](CCC(=O)O)NC(=O)C(C)(C)NC(=O)[C@@H](N)Cc1ccc(O)cc1)[C@@H](C)O)[C@@H](C)O)[C@@H](C)CC)[C@@H](C)CC)C(=O)N[C@@H](CCC(=O)O)C(=O)NCC(=O)NCC(=O)N1CCC[C@H]1C(=O)N[C@@H](CO)C(=O)N[C@@H](CO)C(=O)NCC(=O)N[C@@H](C)C(=O)N1CCC[C@H]1C(=O)N1CCC[C@H]1C(=O)N1CCC[C@H]1C(=O)N[C@@H](CO)C(N)=O [Example 146] (H-Y[Aib]EGT[αMePhe(2-F)]TSDYSI[αMeL]LDEK([AEEA-AEEA-γGlu-C20 diacid])AQ[Aib]EFIQYLIEGGPSSGAPPPS-NH2) | 0.0604 nM | 0.0583 nM |
